Laboratory results: PubChem BioAssay (NCI)
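1) Cells in 96-well plates. 2) Compound, 48 h, 5 concentrations. 3) Linear interpolation between surrounding doses. 4) Unreached endpoint = highest concentration. At the TGI there is no net growth.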

How the values were obtained:
Assay in all cases: inhibition of tumour cell growth, NCI panel, 48 h
NCI-H460 lung = tested on: NCI-H460 lung
A498 renal = tested on: A498 renal
MALME-3M melanoma = tested on: MALME-3M melanoma
MDA-MB-231 breast = tested on: MDA-MB-231 breast
786-0 renal = tested on: 786-0 renal
SF-268 CNS = tested on: SF-268 CNS
SK-OV-3 ovarian = tested on: SK-OV-3 ovarian
HS 578T breast = tested on: HS 578T breast
MDA-MB-435 = tested on: MDA-MB-435
SF-539 CNS = tested on: SF-539 CNS
A549 NSCLC = tested on: A549 NSCLC
RPMI-8226 leukemia = tested on: RPMI-8226 leukemia
LOX IMVI melanoma = tested on: LOX IMVI melanoma
HOP-92 NSCLC = tested on: HOP-92 NSCLC
EKVX NSCLC = tested on: EKVX NSCLC
OVCAR-8 ovarian = tested on: OVCAR-8 ovarian
NCI-H226 lung = tested on: NCI-H226 lung
OVCAR-4 ovarian = tested on: OVCAR-4 ovarian
HOP-62 NSCLC = tested on: HOP-62 NSCLC
NCI/ADR-RES ovarian = tested on: NCI/ADR-RES ovarian

SMILES: O=C(N(O)c1ccccc1Cl)C(O)(c1ccccc1)c1ccccc1
- TGI (NCI-H460 lung): > 100 µM
- TGI (A498 renal): > 100 µM
- TGI (MALME-3M melanoma): > 100 µM
- TGI (MDA-MB-231 breast): > 100 µM
- TGI (786-0 renal): > 100 µM
- TGI (SF-268 CNS): > 100 µM
- TGI (SK-OV-3 ovarian): > 100 µM
- TGI (HS 578T breast): > 100 µM
- TGI (MDA-MB-435): > 100 µM
- TGI (SF-539 CNS): > 100 µM
- TGI (A549 NSCLC): > 100 µM
- TGI (RPMI-8226 leukemia): 69 µM
- TGI (LOX IMVI melanoma): > 100 µM
- TGI (HOP-92 NSCLC): > 100 µM
- TGI (EKVX NSCLC): > 100 µM
- TGI (OVCAR-8 ovarian): > 100 µM
- TGI (NCI-H226 lung): > 100 µM
- TGI (OVCAR-4 ovarian): > 100 µM
- TGI (HOP-62 NSCLC): > 100 µM
- TGI (NCI/ADR-RES ovarian): > 100 µM

SMILES: CC(=O)OCC1OC(OC2CC3C(C)(C)C(O)CC[C@]3(C)C3CCC45CC4(CCC5[C@@H](C)CC(O)C(O)C(C)(C)O)[C@]23C)C(O)C(O)C1O (some centres undefined)
- TGI (NCI-H460 lung): > 10 µM
- TGI (A498 renal): > 10 µM
- TGI (MALME-3M melanoma): > 10 µM
- TGI (MDA-MB-231 breast): > 10 µM
- TGI (786-0 renal): > 10 µM
- TGI (SF-268 CNS): > 10 µM
- TGI (SK-OV-3 ovarian): > 10 µM
- TGI (HS 578T breast): > 10 µM
- TGI (MDA-MB-435): > 10 µM
- TGI (SF-539 CNS): > 10 µM
- TGI (A549 NSCLC): > 10 µM
- TGI (RPMI-8226 leukemia): > 10 µM
- TGI (LOX IMVI melanoma): > 10 µM
- TGI (HOP-92 NSCLC): > 10 µM
- TGI (EKVX NSCLC): > 10 µM
- TGI (OVCAR-8 ovarian): > 10 µM
- TGI (NCI-H226 lung): > 10 µM
- TGI (OVCAR-4 ovarian): > 10 µM
- TGI (HOP-62 NSCLC): > 10 µM
- TGI (NCI/ADR-RES ovarian): > 10 µM

SMILES: CC1(C)OC2C(O)C(CO)OC2(C(F)F)O1 (centres undefined)
- TGI (NCI-H460 lung): > 100 µM
- TGI (A498 renal): > 100 µM
- TGI (MALME-3M melanoma): > 100 µM
- TGI (MDA-MB-231 breast): > 100 µM
- TGI (786-0 renal): > 100 µM
- TGI (SF-268 CNS): > 100 µM
- TGI (SK-OV-3 ovarian): > 100 µM
- TGI (HS 578T breast): > 100 µM
- TGI (MDA-MB-435): > 100 µM
- TGI (SF-539 CNS): > 100 µM
- TGI (A549 NSCLC): > 100 µM
- TGI (RPMI-8226 leukemia): > 100 µM
- TGI (LOX IMVI melanoma): > 100 µM
- TGI (HOP-92 NSCLC): > 100 µM
- TGI (EKVX NSCLC): > 100 µM
- TGI (OVCAR-8 ovarian): > 100 µM
- TGI (NCI-H226 lung): > 100 µM
- TGI (OVCAR-4 ovarian): > 100 µM
- TGI (HOP-62 NSCLC): > 100 µM
- TGI (NCI/ADR-RES ovarian): > 100 µM

SMILES: COCOC1C=CCCCC2=CC(C)=C(CC1)O2 (centres undefined)
- TGI (NCI-H460 lung): > 100 µM
- TGI (A498 renal): > 100 µM
- TGI (MALME-3M melanoma): > 100 µM
- TGI (MDA-MB-231 breast): > 100 µM
- TGI (786-0 renal): > 100 µM
- TGI (SF-268 CNS): > 100 µM
- TGI (SK-OV-3 ovarian): > 100 µM
- TGI (HS 578T breast): > 100 µM
- TGI (MDA-MB-435): > 100 µM
- TGI (SF-539 CNS): > 100 µM
- TGI (A549 NSCLC): > 100 µM
- TGI (RPMI-8226 leukemia): > 100 µM
- TGI (LOX IMVI melanoma): > 100 µM
- TGI (HOP-92 NSCLC): > 100 µM
- TGI (EKVX NSCLC): > 100 µM
- TGI (OVCAR-8 ovarian): > 100 µM
- TGI (NCI-H226 lung): > 100 µM
- TGI (OVCAR-4 ovarian): > 100 µM
- TGI (HOP-62 NSCLC): > 100 µM
- TGI (NCI/ADR-RES ovarian): > 100 µM

SMILES: CC(C)=CCC/C(C)=C/CC/C(C)=C/CC(CO)N(C)CC/C=C(\C)CCC=C(C)C (centres undefined)
- TGI (NCI-H460 lung): 15.8 µM
- TGI (A498 renal): 28.4 µM
- TGI (MALME-3M melanoma): 8.75 µM
- TGI (MDA-MB-231 breast): 22.6 µM
- TGI (786-0 renal): 4.89 µM
- TGI (SF-268 CNS): 26.7 µM
- TGI (SK-OV-3 ovarian): 28.9 µM
- TGI (HS 578T breast): 16.7 µM
- TGI (MDA-MB-435): 13.2 µM
- TGI (SF-539 CNS): 9.76 µM
- TGI (A549 NSCLC): 17.5 µM
- TGI (RPMI-8226 leukemia): 10.1 µM
- TGI (LOX IMVI melanoma): 7.56 µM
- TGI (HOP-92 NSCLC): 8.85 µM
- TGI (EKVX NSCLC): 23.4 µM
- TGI (OVCAR-8 ovarian): 20.2 µM
- TGI (NCI-H226 lung): 28.4 µM
- TGI (OVCAR-4 ovarian): 22.4 µM
- TGI (HOP-62 NSCLC): 15 µM
- TGI (NCI/ADR-RES ovarian): 16.4 µM

SMILES: C=C1CC/C=C(\C)CCC[C@H](C)[C@@H](O)[C@@H]2OC(=O)C(=C)[C@@H]2C[C@H]1O
- TGI (NCI-H460 lung): 27.1 µM
- TGI (A498 renal): > 100 µM
- TGI (MALME-3M melanoma): 22.1 µM
- TGI (MDA-MB-231 breast): 50.5 µM
- TGI (786-0 renal): 18.6 µM
- TGI (SF-268 CNS): 23.1 µM
- TGI (SK-OV-3 ovarian): > 64.1 µM
- TGI (HS 578T breast): 33.9 µM
- TGI (MDA-MB-435): 17.3 µM
- TGI (SF-539 CNS): 6.94 µM
- TGI (A549 NSCLC): 33.9 µM
- TGI (RPMI-8226 leukemia): > 21.9 µM
- TGI (LOX IMVI melanoma): 25.9 µM
- TGI (HOP-92 NSCLC): 7.22 µM
- TGI (EKVX NSCLC): > 42.6 µM
- TGI (OVCAR-8 ovarian): 16.7 µM
- TGI (NCI-H226 lung): 11.5 µM
- TGI (OVCAR-4 ovarian): 51.7 µM
- TGI (HOP-62 NSCLC): 30.8 µM
- TGI (NCI/ADR-RES ovarian): 27.2 µM

SMILES: NCC(=O)Nc1ccc(S(=O)(=O)O)c2cc(S(=O)(=O)O)cc(S(=O)(=O)O)c12
- TGI (A498 renal): > 100 µM
- TGI (MALME-3M melanoma): > 100 µM
- TGI (MDA-MB-231 breast): > 100 µM
- TGI (786-0 renal): > 100 µM
- TGI (SF-268 CNS): > 100 µM
- TGI (SK-OV-3 ovarian): > 100 µM
- TGI (HS 578T breast): > 100 µM
- TGI (MDA-MB-435): > 100 µM
- TGI (SF-539 CNS): > 100 µM
- TGI (A549 NSCLC): > 100 µM
- TGI (RPMI-8226 leukemia): > 100 µM
- TGI (LOX IMVI melanoma): > 100 µM
- TGI (HOP-92 NSCLC): > 100 µM
- TGI (EKVX NSCLC): > 100 µM
- TGI (OVCAR-8 ovarian): > 100 µM
- TGI (NCI-H226 lung): > 100 µM
- TGI (OVCAR-4 ovarian): > 100 µM
- TGI (HOP-62 NSCLC): > 100 µM
- TGI (NCI/ADR-RES ovarian): > 100 µM

SMILES: CC1OC(OC2C(OC(=O)[C@]34CCC(C)(C)C[C@H]3C3=CC[C@@H]5[C@@]6(C)CC[C@H](OC7OC(CO)C(O)C(O)C7OC7OC(CO)C(O)C(O)C7O)C(C)(C)[C@@H]6CC[C@@]5(C)[C@]3(C)CC4)OCC(O)C2O)C(O)C(OC2OCC(O)C(O)C2O)C1OC1OCC(O)C(OC2OCC(O)C(O)C2O)C1O (some centres undefined)
- TGI (NCI-H460 lung): > 100 µM
- TGI (A498 renal): 5.11 µM
- TGI (MALME-3M melanoma): 18.3 µM
- TGI (MDA-MB-231 breast): 26.9 µM
- TGI (786-0 renal): 62.6 µM
- TGI (SF-268 CNS): 33.1 µM
- TGI (SK-OV-3 ovarian): > 69.5 µM
- TGI (HS 578T breast): 50.9 µM
- TGI (MDA-MB-435): 5.6 µM
- TGI (SF-539 CNS): > 100 µM
- TGI (A549 NSCLC): 15 µM
- TGI (RPMI-8226 leukemia): 24 µM
- TGI (LOX IMVI melanoma): > 74.6 µM
- TGI (HOP-92 NSCLC): 20.2 µM
- TGI (EKVX NSCLC): 17.1 µM
- TGI (OVCAR-8 ovarian): > 83.2 µM
- TGI (NCI-H226 lung): 24.7 µM
- TGI (OVCAR-4 ovarian): > 61.6 µM
- TGI (HOP-62 NSCLC): 29.6 µM
- TGI (NCI/ADR-RES ovarian): > 100 µM

SMILES: CCOC(=O)c1sc2c(c1OC(=O)c1ccc(OC)cc1)c(=O)n(-c1ccccc1)c(=S)n2-c1ccccc1
- TGI (NCI-H460 lung): > 100 µM
- TGI (A498 renal): 41.4 µM
- TGI (MALME-3M melanoma): > 100 µM
- TGI (MDA-MB-231 breast): 54.2 µM
- TGI (786-0 renal): > 100 µM
- TGI (SF-268 CNS): > 100 µM
- TGI (SK-OV-3 ovarian): > 100 µM
- TGI (HS 578T breast): > 100 µM
- TGI (MDA-MB-435): > 100 µM
- TGI (SF-539 CNS): > 100 µM
- TGI (A549 NSCLC): > 100 µM
- TGI (RPMI-8226 leukemia): > 100 µM
- TGI (LOX IMVI melanoma): > 100 µM
- TGI (HOP-92 NSCLC): 63.4 µM
- TGI (EKVX NSCLC): > 100 µM
- TGI (OVCAR-8 ovarian): > 100 µM
- TGI (NCI-H226 lung): 73 µM
- TGI (OVCAR-4 ovarian): 24.6 µM
- TGI (HOP-62 NSCLC): > 100 µM
- TGI (NCI/ADR-RES ovarian): 72.2 µM
